{
  "source": "patent US20220062255A1",
  "about": "(PRILENIA NEUROTHERAPEUTICS LTD., priority 2016, published 2022)",
  "key": {"Sigma-1 Receptor (S1R)": {"target": "T1, Sigma-1 Receptor (S1R) (Homo sapiens, UniProt Q99720)", "T1 construct": "Eurofins Panlabs Taiwan; Ltd. (performed the assay)", "T1 sequence (Q99720 whole entry, species assumed)": "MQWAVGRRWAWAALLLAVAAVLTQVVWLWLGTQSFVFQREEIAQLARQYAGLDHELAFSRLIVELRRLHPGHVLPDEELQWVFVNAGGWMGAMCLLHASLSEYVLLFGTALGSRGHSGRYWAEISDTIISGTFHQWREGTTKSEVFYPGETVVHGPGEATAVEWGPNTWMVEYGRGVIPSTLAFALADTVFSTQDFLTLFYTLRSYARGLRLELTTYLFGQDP", "experiment": "In-vitro binding assay, Sigma-1 receptor", "details": "Cheng Prusoff; Eurofins Panlabs; source Johnston et al. 2019 and NC20-PHARM-2", "procedure": "(§1) In-vitro binding assays performed at Eurofins Panlabs Taiwan. Ltd. Specific ligand binding was determined in the presence of an excess of unlabelled ligand."}, "Sigma-2 receptor (S2R)": {"target": "T2, Sigma-2 receptor (S2R) (Homo sapiens, UniProt Q5BJF2)", "T2 construct": "Eurofins Panlabs Taiwan; Ltd. (performed the assay)", "T2 sequence (Q5BJF2 whole entry, species assumed)": "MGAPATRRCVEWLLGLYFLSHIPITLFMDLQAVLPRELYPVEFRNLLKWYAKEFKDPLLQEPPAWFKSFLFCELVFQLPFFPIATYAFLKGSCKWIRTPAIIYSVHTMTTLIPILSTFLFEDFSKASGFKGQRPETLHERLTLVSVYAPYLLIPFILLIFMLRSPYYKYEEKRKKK", "experiment": "In-vitro binding assay, Sigma-2 receptor", "details": "Cheng Prusoff; Eurofins Panlabs; source Johnston et al. 2019 and NC20-PHARM-2", "procedure": "as §1"}, "[1]": {"test_system": "BDNF secretion from B104 neuroblastoma cells", "experiment": "BDNF in-situ ELISA, B104 neuroblastoma cells", "format": "cell-based, rat", "details": "together with pridopidine"}, "[2]": {"test_system": "Retinal Ganglion Cells (RGCs)", "details": "for RGC Loss (%): day 41, OD (OHT) vs OS eye, mean±SEM, DDW control 43±6%; for RGC neuroprotection (%): vs DDW control", "procedure": "In this model, sclerosis of the aqueous veins via retrograde introduction of hypertonic saline increases intraocular pressure (IOP). Hypertonic saline injection (HSI) was performed on day 0 and day 7 into the episcleral veins of the right eye of pigmented Brown Norway. Rats were sedated with ketamine and xylazine (40-80 and 5-10 mg/kg, respectively), kept warm and eyes moist to avoid desiccation during the procedure. Eye surface was treated with erythromycin (0.5%). On Days 0 and 7, hypertonic saline solution (250 μL, NaCl, 1.8-2.0M) was injected into the limbal vascular plexus via different episcleral veins in the OHT eye. For IOP measurement, corneas were anaesthetized with 0.5% proparacaine HCl ophthalmic solution and then IOP measured using a Tono-Pen Vet. Ten repeated readings were averaged from each eye. […] Over the course of the study, animals were clinically evaluated daily, and IOP and body weight measured weekly (FIG. 1).\nThe number of RGCs was quantified using immunofluorescent staining for the RGC marker brain-specific homeobox/POU domain protein 3A (Brn-3a), followed by image analysis. Eyes were immediately enucleated following CO2 euthanization and fixed in paraformaldehyde (PFA, 4%) at 4° C. for 24 hours, then dissected in PBS. Retinas were permeabilized in PBS+0.5% Triton X-100 for 15 minutes, frozen at −80° C. for 15 minutes, then rinsed in PBS-0.5% Triton. […] Four radial cuts were made in the retina and it was flat-mounted. Two regions of interest (medial and distal) were acquired in each quadrant (FIG. 3) with fluorescent microscopy, and RGCs counted using ImageJ.\nThe percent of RGC loss was calculated by comparing the number of RGC counts per retina in the OD eye to that in the OS eye from the same animal. […] RGC neuroprotection (%) in each animal was calculated as following: [100×((1−RGC Loss (%)/Average RGC Loss (%) in Control group))]. […] Representative images of RGC staining can be seen in FIG. 5."}, "[3]": {"test_system": "laser coagulation (LC) model of experimental glaucoma", "details": "for Area under curve (AUC) of IOP, Total Area: lasered eyes, vehicle 272, contralateral control 185", "procedure": "(§2) Unilateral induction of IOP elevation was performed twice, at day 0 and day 7. IOP increase was induced by 532 nm diode laser (Oculight® TX; Iridex) photocoagulation of episcleral veins, as previously described. IOP was measured with a TonoLab tonometer.\n(§3) IOP was measured at baseline, and after laser photocoagulation on days 1, 4, 7, 8, and 14 (FIG. 10)."}, "RGCs [4]": {"test_system": "RGCs", "details": "day 14; for number of RGCs per retinal area, Control eye, Mean: contralateral eye; for RGC Difference % (decrease, lasered vs control eye): vehicle 16.7%", "procedure": "In Wistar rats, the laser coagulation (LC) model of experimental glaucoma was utilized.\nas §2, §3\nOn day 14, rats were sacrificed by transcardial perfusion, first with 0.9% NaCl solution, then with 4% PFA in 0.1M phosphate buffer, pH 7.4. Eyes and optic nerves were collected for immunohistochemical analysis. The number of RGCs was quantified using immunofluorescent staining for RNA-binding protein with multiple splicing (RBPMS), an RGC-specific marker, and DAPI nuclear stain followed by stereological analysis of the entire retina (FIG. 11)."}, "optic nerve axons": {"test_system": "optic nerve axons", "details": "for Number of optic nerve axons, Lasered eye, Mean / Number of optic nerve axons, Control eye, Mean / loss of optic nerve axons, Difference % (LC eye vs control eye): day 14; for Number of optic nerve axons, Control eye, Mean: contralateral eye; for loss of optic nerve axons, Difference % (LC eye vs control eye): vehicle 27.5% in text; for Axonal protection (%): vs vehicle group", "procedure": "Neuroprotective preservation of visual function in glaucoma and other optic neuropathies depends not only on preservation of cell bodies, but also on maintaining connectivity between the eye and the brain. Connectivity is preserved by protecting RGC axons which make up the optic nerve. […] Unilateral induction of IOP elevation was performed twice, at day 0 and day 7. IOP increase was induced by 532 nm diode laser (Oculight® TX; Iridex) photocoagulation of episcleral veins, as previously described. IOP was measured with a TonoLab tonometer.\nIOP was measured at baseline, and after laser photocoagulation on days 1, 4, 7, 8, and 14.\nOn day 14, rats were sacrificed by transcardial perfusion, first with 0.9% NaCl solution, then with 4% PFA in 0.1M phosphate buffer, pH 7.4. Eyes and optic nerves were collected for immunohistochemical analysis.\nOptic nerves were postfixed in 4% PFA (in 0.1M phosphate buffer, pH 7.4), placed in 1% osmium, dehydrated in ascending alcohol concentrations, and placed in 1% uranyl acetate in 100% ethanol for 1 hour. Optic nerves were embedded in epoxy resin mixture at 60° C. for 48 hours and 1 μm sections prepared. Axon number was estimated using stereology.\nHigh IOPs immediately after LC procedure could be associated with retinal ischemia, and low IOP's could indicate failure to establish the model."}, "dry AMD": {"test_system": "dry AMD", "details": "long-term oral administration; paper example", "source_text": "The pathological correlation for the decline of visual acuity is the progressive expansion of the degenerated area of the retina (i.e., geographic atrophy), specifically in the macula."}, "RGCs [5]": {"test_system": "RGCs", "details": "topical to the HSI treated eye, paper example"}, "glaucoma": {"test_system": "glaucoma", "details": "long-term oral administration; paper example"}, "wet AMD": {"test_system": "wet AMD", "details": "long-term oral administration; paper example"}, "retinitis pigmentosa": {"test_system": "retinitis pigmentosa", "details": "periodic oral administration; paper example"}, "optic neuropathy": {"test_system": "optic neuropathy", "details": "long-term oral administration; paper example"}, "[6]": {"test_system": "BDNF secretion from B104 neuroblastoma cells", "details": "in-situ ELISA; Geva, et al. 2016; cited from earlier work"}},
  "note": "pKi: −log10 of the molar value. Several values for one entry are separate records, joined by “and”; a condition that tells them apart may be missing. Equal entries are not always repeated. Where two headings read alike, the source gives them in different places.",
  "data": [
    {"molecule": "CCCN1CCC(O)(c2cccc(S(C)(=O)=O)c2)CC1", "note": "[Compound 1]", "values": [
      {"measurement": "pKi", "setting": "Sigma-1 Receptor (S1R)", "value": 6.43},
      {"measurement": "pKi", "setting": "Sigma-2 receptor (S2R)", "value": "< 4.00"},
      {"measurement": "effect with pridopidine on BDNF secretion", "setting": "[1]", "value": "synergistic effect"}
    ]},
    {"molecule": "CCCN1CC[C@@H](c2cccc(S(C)(=O)=O)c2)[C@@H](O)C1", "note": "[Compound 4]", "values": [
      {"measurement": "pKi", "setting": "Sigma-1 Receptor (S1R)", "value": 5.54},
      {"measurement": "pKi", "setting": "Sigma-2 receptor (S2R)", "value": "< 4.00"},
      {"measurement": "effect with pridopidine on BDNF secretion", "setting": "[1]", "value": "synergistic effect"}
    ]},
    {"molecule": "CCCN1CCC(c2cccc(S(C)(=O)=O)c2)CC1", "note": "[Pridopidine, 4-(3-(Methylsulfonyl)phenyl)-1-propylpiperidine]", "values": [
      {"measurement": "RGC Loss (%)", "setting": "[2]; 3 mg/kg oral daily", "value": "25±7% and 25%"},
      {"measurement": "RGC neuroprotection (%)", "setting": "[2]; 3 mg/kg oral daily", "value": 42, "unit": "%"},
      {"measurement": "RGC Loss (%)", "setting": "[2]; 30 mg/kg oral daily", "value": "21±6% and 21%"},
      {"measurement": "RGC neuroprotection (%)", "setting": "[2]; 30 mg/kg oral daily", "value": 50, "unit": "%"},
      {"measurement": "RGC Loss (%)", "setting": "[2]; 60 mg/kg oral daily", "value": "7±9% and 7%"},
      {"measurement": "RGC neuroprotection (%)", "setting": "[2]; 60 mg/kg oral daily", "value": 83, "unit": "%"},
      {"measurement": "Area under curve (AUC) of IOP, Total Area", "setting": "[3]; 3 mg/kg oral daily", "value": 255},
      {"measurement": "Area under curve (AUC) of IOP, Total Area", "setting": "[3]; 30 mg/kg oral daily", "value": 289},
      {"measurement": "Area under curve (AUC) of IOP, Total Area", "setting": "[3]; 60 mg/kg oral daily", "value": 295},
      {"measurement": "effect on IOP of lasered eyes", "setting": "[3]; 3, 30 and 60 mg/kg oral daily, one-way ANOVA, P≥0.26", "value": "no difference in the IOP of lasered eyes"},
      {"measurement": "number of RGCs per retinal area, Lasered eye, Mean", "setting": "RGCs [4]; 3 mg/kg oral daily", "value": 1315},
      {"measurement": "number of RGCs per retinal area, Control eye, Mean", "setting": "RGCs [4]; 3 mg/kg oral daily", "value": 1404},
      {"measurement": "RGC Difference % (decrease, lasered vs control eye)", "setting": "RGCs [4]; 3 mg/kg oral daily", "value": 5.2, "unit": "%"},
      {"measurement": "number of RGCs per retinal area, Lasered eye, Mean", "setting": "RGCs [4]; 30 mg/kg oral daily", "value": 1336},
      {"measurement": "number of RGCs per retinal area, Control eye, Mean", "setting": "RGCs [4]; 30 mg/kg oral daily", "value": 1444},
      {"measurement": "RGC Difference % (decrease, lasered vs control eye)", "setting": "RGCs [4]; 30 mg/kg oral daily", "value": 7.7, "unit": "%"},
      {"measurement": "number of RGCs per retinal area, Lasered eye, Mean", "setting": "RGCs [4]; 60 mg/kg oral daily", "value": 1198},
      {"measurement": "number of RGCs per retinal area, Control eye, Mean", "setting": "RGCs [4]; 60 mg/kg oral daily", "value": 1417},
      {"measurement": "RGC Difference % (decrease, lasered vs control eye)", "setting": "RGCs [4]; 60 mg/kg oral daily", "value": 13.9, "unit": "%"},
      {"measurement": "Number of optic nerve axons, Lasered eye, Mean", "setting": "optic nerve axons; 3 mg/kg oral daily", "value": 358},
      {"measurement": "Number of optic nerve axons, Control eye, Mean", "setting": "optic nerve axons; 3 mg/kg oral daily", "value": 394},
      {"measurement": "loss of optic nerve axons, Difference % (LC eye vs control eye)", "setting": "optic nerve axons; 3 mg/kg oral daily", "value": 8.6, "unit": "%"},
      {"measurement": "Axonal protection (%)", "setting": "optic nerve axons; 3 mg/kg oral daily", "value": 69, "unit": "%"},
      {"measurement": "Number of optic nerve axons, Lasered eye, Mean", "setting": "optic nerve axons; 30 mg/kg oral daily", "value": 363},
      {"measurement": "Number of optic nerve axons, Control eye, Mean", "setting": "optic nerve axons; 30 mg/kg oral daily", "value": 433},
      {"measurement": "loss of optic nerve axons, Difference % (LC eye vs control eye)", "setting": "optic nerve axons; 30 mg/kg oral daily", "value": 15, "unit": "%"},
      {"measurement": "Axonal protection (%)", "setting": "optic nerve axons; 30 mg/kg oral daily", "value": 45, "unit": "%"},
      {"measurement": "Number of optic nerve axons, Lasered eye, Mean", "setting": "optic nerve axons; 60 mg/kg oral daily", "value": 365},
      {"measurement": "Number of optic nerve axons, Control eye, Mean", "setting": "optic nerve axons; 60 mg/kg oral daily", "value": 395},
      {"measurement": "loss of optic nerve axons, Difference % (LC eye vs control eye)", "setting": "optic nerve axons; 60 mg/kg oral daily", "value": "7.24% and 7.6%"},
      {"measurement": "Axonal protection (%)", "setting": "optic nerve axons; 60 mg/kg oral daily", "value": 74, "unit": "%"},
      {"measurement": "efficacy in dry AMD patients", "setting": "dry AMD", "value": "effective in treating human patients with dry AMD"},
      {"measurement": "viability of the RGCs and RGC loss", "setting": "RGCs [5]; groups 2, 3 and 4 vs group 1", "value": "significantly increases viability of the RGCs and reduces RCG loss"},
      {"measurement": "protection of RGC axons", "setting": "RGCs [5]", "value": "protects RGC axons"},
      {"measurement": "efficacy in glaucoma patients", "setting": "glaucoma", "value": "effective in treating human patients with glaucoma"},
      {"measurement": "efficacy in wet AMD patients", "setting": "wet AMD", "value": "effective in treating human patients with wet AMD"},
      {"measurement": "efficacy in retinitis pigmentosa patients", "setting": "retinitis pigmentosa", "value": "effective in treating human patients with retinitis pigmentosa"},
      {"measurement": "efficacy in optic neuropathy patients", "setting": "optic neuropathy", "value": "effective in treating human patients with optic neuropathy"},
      {"measurement": "BDNF secretion in rat neuroblastoma cells", "setting": "[6]", "value": "dose dependent increase in BDNF secretion"}
    ]}
  ]
}
